Laboratory results: paper PMC7501296, “Rapid and direct control of target protein levels with VHL-recruiting dTAG molecules” (Nature Communications, 2020)
“And” between values parts separate entries of the source, which are not always exact repeats. Equal entries are not always repeated.

Legend:
Format in all cases: cell-based
[1] = system: PATU-8902 FKBP12^F36V-KRAS^G12V; KRAS^-/- clone; assay: Antiproliferation, PATU-8902 FKBP12F36V-KRASG12V; KRAS-/- clone, 3D-spheroid (CellTiter-Glo); conditions: FKBP12F36V-KRASG12V, KRAS-/-, 3D-spheroid, 120 h
In short: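 Viability of cells grown as ultra-low adherent 3D-spheroids was determined with CellTiter-Glo (Promega). Luminescence readings were taken on an Envision 2104 plate reader (PerkinElmer) and a Fluostar Omega Reader (BMG Labtech), and the resulting data were processed in GraphPad PRISM v8 to assess effects on cell proliferation.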

[2] = system: EWS502 FKBP12^F36V-GFP cells; assay: Relative growth of EWS502 FKBP12F36V-GFP cells (CellTiter-Glo)
Experimental: Cell viability was assayed in 2D-adherent or ultra-low adherent 3D-spheroids using CellTiter-Glo (Promega)[6],[15]. Luminescence was measured on an Envision 2104 plate reader (PerkinElmer) and Fluostar Omega Reader (BMG Labtech) and data was analyzed using GraphPad PRISM v8. Synergy assessments were performed using CellTiter-Glo (Promega) with the following modifications to the protocol described in the ref. [34]. In brief, EWS502 cells were plated at 1000 cells per well in 50 µL of appropriate media in 384-well white culture plates (Corning) allowed to adhere overnight, and 100 nL of compounds were added using a Janus Workstation pin tool (PerkinElmer) for 72 h. Cell viability was measured by addition of 10 µL of CellTiter-glo (Promega), followed by incubation for 15 minutes at room temperature. Luminescence was measured on an Envision 2104 plate reader (PerkinElmer) and data was analyzed using GraphPad PRISM v8.

[3] = system: PATU-8902 FKBP12^F36V-KRAS^G12V; KRAS^-/- clone; assay: Antiproliferation, PATU-8902 FKBP12F36V-KRASG12V; KRAS-/- clone, 2D-monolayer (CellTiter-Glo)
[4] = system: PATU-8902 LACZ-FKBP12^F36V clone; assay: Antiproliferation, PATU-8902 LACZ-FKBP12F36V clone, 3D-spheroid (CellTiter-Glo); conditions: 120 h
In short: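 Viability of cells grown as ultra-low adherent 3D-spheroids was determined with the CellTiter-Glo reagent (Promega). Luminescence was read on either an Envision 2104 plate reader (PerkinElmer) or a Fluostar Omega Reader (BMG Labtech). The resulting data were analyzed with GraphPad PRISM v8.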

FKBP12^F36V-KRAS^G12V = biological target: T1, FKBP12^F36V-KRAS^G12V (Homo sapiens, UniProt P01116+P62942, F37V/G12V); assay: Immunoblot of PATU-8902 FKBP12F36V-KRASG12V; KRAS-/- clone; conditions: time-course
T1 construct: KRAS G12V (fusion partner, same polypeptide); expressed in transfected cells
T1 sequence (P62942+P01116 fused P62942:F37V/P01116:G12V): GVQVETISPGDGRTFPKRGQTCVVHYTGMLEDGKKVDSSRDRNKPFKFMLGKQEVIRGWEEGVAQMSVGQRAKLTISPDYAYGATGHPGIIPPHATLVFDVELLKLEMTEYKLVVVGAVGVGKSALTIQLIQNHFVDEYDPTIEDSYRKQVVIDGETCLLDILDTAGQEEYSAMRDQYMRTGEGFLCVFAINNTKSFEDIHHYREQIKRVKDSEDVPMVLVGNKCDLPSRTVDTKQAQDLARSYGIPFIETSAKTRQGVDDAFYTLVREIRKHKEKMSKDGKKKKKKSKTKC
Experimental: PATU-8902 LACZ-FKBP12^F36V and FKBP12^F36V-KRAS^G12V; KRAS^−/− cells and 293T cells were lysed with RIPA buffer supplemented with cOmplete protease inhibitors (Roche), PhosSTOP phosphatase inhibitors (Roche), and 0.1% benzonase (Novagen). Proteins were separated using NuPAGE Bolt^TM Bis–Tris gels (Thermo Fisher Scientific) and transferred to nitrocellulose membranes, which were blocked with Odyssey Blocking Buffer (LI-COR) and incubated with primary antibodies overnight. Membranes were washed three times with TBS-T, incubated with the appropriate fluorescently labeled infrared secondary antibodies, washed again three times with TBS-T, and assessed using an Odyssey CLx Imager (LI-COR)[6],[15]. EWS502 cells were lysed with Cell Lysis Buffer (Cell Signaling Technology) supplemented with cOmplete protease inhibitors (Roche). Proteins were separated using SDS-PAGE gels and transferred to PVDF membranes, which were blocked with 5% milk in TBS-T and incubated with primary antibodies overnight. Membranes were washed five times with TBS-T, incubated with the appropriate horseradish peroxidase-conjugated secondary antibodies, washed again five times with TBS-T, and imaged. The following primary antibodies were employed in this study: HA (Cell Signaling Technology #3724 and #2367, dilution at 1:1000), phospho-ERK1/2 T202/Y204 (Cell Signaling Technology #4370, dilution at 1:1000), ERK1/2 (Cell Signaling Technology #4696, dilution at 1:1000), phospho-AKT S473 (Cell Signaling Technology #4060, dilution at 1:1000), AKT (Cell Signaling Technology #2920, dilution at 1:1000), FKBP12 (Abcam #ab24373, dilution at 1:1000), GFP (Cell Signaling Technology #2555, dilution at 1:1000), FLI (Abcam #ab15289, dilution at 1:2000), NKX2-2 (Abcam #ab187375, dilution at 1:1000), GAPDH (Cell Signaling Technology #2118, dilution at 1:3000), Vinculin (Cell Signaling Technology #13901, dilution at 1:3000), β-Actin (Cell Signaling Technology #58169, dilution at 1:3000), and α-Tubulin (Cell Signaling Technology #3873, dilution at 1:5000). Species-specific fluorescently labeled infrared secondary antibodies including IRDye 680LT anti-Mouse IgG (LI-COR #926-68020, dilution at 1:5000), IRDye 800CW anti-Mouse IgG (LI-COR #926-32210, dilution at 1:5000), IRDye 680LT anti-Rabbit IgG (LI-COR #926-68021, dilution at 1:5000), and IRDye 800CW anti-Rabbit IgG (LI-COR #926-32211, dilution at 1:5000) and peroxidase-linked secondary antibodies including anti-Mouse IgG (Thermo Fisher Scientific #45000680, dilution at 1:5000) and anti-Rabbit IgG (Thermo Fisher Scientific #45000682, dilution at 1:5000) were employed as appropriate.

[5] = log10[compound] (M) -5.69897, single replicates
[6] = log10[compound] (M) -6.19897, single replicates
[7] = log10[compound] (M) -6.69897, single replicates
[8] = log10[compound] (M) -7.19897, single replicates
[9] = log10[compound] (M) -7.69897, single replicates
[10] = log10[compound] (M) -8.19897, single replicates
[11] = log10[compound] (M) -8.69897, single replicates
[12] = log10[compound] (M) -9.19897, single replicates
[13] = log10[compound] (M) -9.69897, single replicates
[14] = log10[compound] (M) -10.199, single replicates

CCC(C(=O)N1CCCCC1C(=O)OC(CCc1ccc(OC)c(OC)c1)c1ccccc1OCC(=O)NCCCCCCC(=O)NC(C(=O)N1CC(O)CC1C(=O)NC(C)c1ccc(-c2scnc2C)cc1)C(C)(C)C)c1cc(OC)c(OC)c(OC)c1 (centres unmarked) [dTAG^V-1-NEG]
DMSO-normalized antiproliferation [1, 5]: 37.3931 and 26.551 and 27.3028 and 28.0546 | DMSO-normalized antiproliferation [1, 6]: 78.1886 and 92.1435 and 64.5511 and 70.1475 | DMSO-normalized antiproliferation [1, 7]: 103.503 and 85.567 and 103.938 and 98.1965 | DMSO-normalized antiproliferation [1, 8]: 124.063 and 123.712 and 110.481 and 131.998 | DMSO-normalized antiproliferation [1, 9]: 94.7496 and 116.061 and 121.718 and 128.178 | DMSO-normalized antiproliferation [1, 10]: 119.268 and 103.119 and 108.576 and 125.767 | DMSO-normalized antiproliferation [1, 11]: 120.883 and 119.814 and 120.521 and 105.703 | DMSO-normalized antiproliferation [1, 12]: 102.117 and 92.5221 and 111.366 and 98.8369 | DMSO-normalized antiproliferation [1, 13]: 88.1174 and 98.3023 and 99.984 and 124.954 | DMSO-normalized antiproliferation [1, 14]: 99.0429 and 90.8682 and 97.0717 and 101.855 | Relative growth (luminescence values relative to day 0) ([2]; day 0, technical replicates): 0.9807 and 0.9337 and 1.074 and 0.9661 and 0.9369 and 1.05 and 0.936 and 1.123 | Relative growth (luminescence values relative to day 0) ([2]; day 3, technical replicates): 8.012 and 8.414 and 8.126 and 8.231 and 8.041 and 7.9927 and 8.641 and 7.789 | Relative growth (luminescence values relative to day 0) ([2]; day 5, technical replicates): 16.2325 and 15.4561 and 17.0235 and 15.0335 and 14.9405 and 13.797 and 14.8812 and 15.4178 | Relative growth (luminescence values relative to day 0) ([2]; day 7, technical replicates): 19.7372 and 19.9296 and 22.6222 and 21.4195 and 20.5619 and 20.5847 and 22.7467 and 21.3128 | DMSO-normalized antiproliferation ([3]; log10[compound] (M) -5.69897, replicate values): 4.32 and 6.388 and 6.155 and 5.991 | DMSO-normalized antiproliferation ([3]; log10[compound] (M) -6.19897, replicate values): 32.3489 and 36.7324 and 47.9927 and 46.6785 | DMSO-normalized antiproliferation ([3]; log10[compound] (M) -6.69897, replicate values): 83.4764 and 91.9957 and 98.0856 and 85.7695 | DMSO-normalized antiproliferation ([3]; log10[compound] (M) -7.19897, replicate values): 140.095 and 133.654 and 96.5457 and 87.6299 | DMSO-normalized antiproliferation ([3]; log10[compound] (M) -7.69897, replicate values): 124.703 and 107.666 and 124.781 and 104.227 | DMSO-normalized antiproliferation ([3]; log10[compound] (M) -8.19897, replicate values): 100.524 and 126.087 and 110.25 and 83.3074 | DMSO-normalized antiproliferation ([3]; log10[compound] (M) -8.69897, replicate values): 126.672 and 110.141 and 94.4012 and 101.209 | DMSO-normalized antiproliferation ([3]; log10[compound] (M) -9.19897, replicate values): 119.782 and 117.251 and 170.771 and 120.652 | DMSO-normalized antiproliferation ([3]; log10[compound] (M) -9.69897, replicate values): 93.2126 and 100.867 and 84.0534 and 89.6654 | DMSO-normalized antiproliferation ([3]; log10[compound] (M) -10.199, replicate values): 113.321 and 95.7713 and 117.376 and 100.982 | DMSO-normalized antiproliferation [4, 5]: 68.4913 and 65.8862 and 68.8321 and 78.0465 | DMSO-normalized antiproliferation [4, 6]: 88.8571 and 103.865 and 101.246 and 98.2508 | DMSO-normalized antiproliferation [4, 7]: 91.2022 and 101.677 and 109.864 and 107.932 | DMSO-normalized antiproliferation [4, 8]: 113.68 and 101.811 and 126.495 and 101.479 | DMSO-normalized antiproliferation [4, 9]: 124.531 and 121.356 and 110.765 and 105.317 | DMSO-normalized antiproliferation [4, 10]: 119.921 and 92.6191 and 101.851 and 115.03 | DMSO-normalized antiproliferation [4, 11]: 108.505 and 98.1611 and 108.837 and 115.846 | DMSO-normalized antiproliferation [4, 12]: 113.362 and 108.537 and 123.253 and 101.067 | DMSO-normalized antiproliferation [4, 13]: 112.187 and 102.493 and 128.974 and 86.9201 | DMSO-normalized antiproliferation [4, 14]: 94.0987 and 98.1746 and 115.316 and 84.3777 | KRASG12V degradation, immunoblot (FKBP12^F36V-KRAS^G12V): not induced
